For one series, the system named is Huh-7 HCV replicon cells. Description: CC50 assay (CellTiter-Glo) in Huh-7 HCV replicon cells. To be noted: 3 days incubation, 50% cytostatic concentration. It is filed as cell-based, human. How it is done:
(§1) The anti HCV activity of specifically substituted pteridine derivatives was tested in a human hepatoma Huh-7 cell line harbouring a HCV replicon. The assay comprised the following steps:
(§2) Step 1: compound preparation and serial dilution involved the following alternatives, depending upon the water solubility of pteridine derivative being tested:
(§3) • 1. with respect to water soluble pteridine derivatives, 500 μL of solution in cell media (DMEM, 10% FBS, P/S, L-Glutamine) was prepared with a concentration that is twice the concentration of the starting final serial dilution concentration. 150 μL of the solution was added to the pre-specified wells in column 1 of a 96-well cell culture plate (PerkinElmer, white plate, cat. #6005181, for EC50 assay; black plate, cat. #6005182 for CC50 assay). The rest of the plate, i.e. columns 2-12, was filled with 100 μL of cell media. The plate was then placed on a Precision 2000 Workstation in order to start serial dilution. Pteridine compounds were diluted three times each step from column 1 to column 10. Column 11 was used as a blank control (no pteridine compound added). • 2. With respect to poorly water soluble pteridine derivatives, DMSO was used as a solvent, and serial dilution was performed in 50% DMSO in water, in a 384-well plate. A solution containing the relevant compound at 100-fold the concentration of the starting final serial dilution concentration was prepared in 50% DMSO in water and added to the pre-specified wells in column 1 of a polypropylene 384-well plate. This plate was then placed on a Precision 2000 Workstation in order to start serial dilution. After serial dilution, 2 μL of the solution was transferred from the 384-well plate to a 96-well cell culture plate containing 100 μL of cell media on a Biomek FX Workstation. The DMSO concentration in the final assay condition was 0.5% after cells have been added to the plate and the total volume in each well was brought to 200 μL. Step 2: to each well of the serial dilution plate prepared in step 1, 100 μL of cell media containing 6000 suspended Huh-7 HCV replicon cells was added with a Multidrop workstation. Plates were incubated for 3 days at 37° C. with 5% CO2. Step 3: detection: • 1) with respect to the EC50 assay, the media in a 96-well cell culture plate was aspirated with a Biotek EL405 plate-washer. A volume of 200 μL of a solution containing a 1:1 mixture of a cell-lysis buffer (commercially available from Promega, Luciferase Cell Culture Lysis 5X Reagent, cat. #E1531) and a luciferase substrate solution (commercially available from Promega, Luciferase Assay, cat. #E4550) was added to each well of the plate with Multidrop. The plate was incubated for 30 minutes at room temperature before the luminescence signal was measured with a TopCount plate-reader. • 2) with respect to the CC50 assay, 100 μL of a pre-mixed CellTiter-Glo (commercially available from Promega, cat. #G7572) solution was added directly to the cell culture in each well of the plate and the luminescence signal was measured with a TopCount plate-reader after 10 minutes of incubation at room temperature.
(§4) Results are expressed by the following data: • the 50% effective concentration (EC50), i.e. the concentration that protects 50% of the cell monolayer from virus-induced cythopathic effect. • the 50% cytostatic concentration (CC50), i.e. the concentration that results in 50% inhibition of cell growth.

A further series has as its target HCV replicon. Kind of series: Anti-HCV replicon assay (EC50, luciferase readout). The class given is cell-based, hepatitis C virus. To be noted: human hepatoma Huh-7 cell line harbouring a HCV replicon, 3 days incubation, luciferase signal. How it is done:
as §1, §2, §3, §4
A general note: In antiviral work, replicon cells carry a viral genome segment that copies itself.

Series [1] is described as follows: CC50 assay (CellTiter-Glo) in Huh-7 HCV replicon cells. It is filed as cell-based, human. As to conditions: human, 3 days incubation, 50% cytostatic concentration. How it is done:
as §1, §2, §3, §4
(Cellular ATP, detected with luciferase, serves as a proxy for viable cell number.)

[2] abbreviates: Hepatitis C virus, 72 h, read-out: EC50.

Read-outs that look alike come from different tables or passages of the source.

For `Nc1nc(N2CCOCC2)c2nc(-c3ccc(OC(F)(F)F)cc3)cnc2n1` [Example 86], the CC50 in the series with Huh-7 HCV replicon cells was in the range of 10 to 20 µM. Further, the EC50 on HCV replicon (read-out: EC50) was 0.3 to 1 µM.

With `Nc1nc(N2CCOCC2)c2nc(-c3ccc(C(F)(F)F)cc3C(F)(F)F)cnc2n1` [Example 93, 6-(2,4-bis(trifluoromethyl)phenyl)-4-morpholinopteridin-2-ylamine], in series [1], the CC50 at 3 days lay within 10 to 20 µM. Also, in the series on HCV replicon (setting [2]), the EC50 lay in the range of 1 to 10 µM.

For the compound `Nc1nc(N2CCOCC2)c2nc(-c3c(Cl)cccc3Cl)cnc2n1` [Example 95, 6-(2,6-dichlorophenyl)-4-morpholinopteridin-2-ylamine], the CC50 at 3 days in series [1] fell in the range of 10 to 20 µM. For the same compound, the EC50 in the series with HCV replicon (Hepatitis C virus, Huh-7, 72 h) was in the range of 1 to 10 µM.

Take `Nc1nc(N2CCOCC2)c2nc(-c3cccnc3)cnc2n1` [Example 108, 4-morpholino-6-(pyridin-3-yl)pteridin-2-ylamine]: the CC50 at 3 days in series [1] fell in the range of 10 to 20 µM. The EC50 in the series with HCV replicon (setting [2]) fell in the range of 0.3 to 1 µM.

Regarding `Nc1nc(N2CCOCC2)c2nc(-c3cccnc3F)cnc2n1` [Example 109, 6-(2-fluoropyridin-3-yl)-4-morpholino-pteridin-2-ylamine], the CC50 at 3 days in series [1] lay within 10 to 20 µM. The compound also registered an EC50 in the series with HCV replicon (Hepatitis C virus, Huh-7, 72 h) of 1 to 10 µM.

Turning to `Nc1nc(N2CCOCC2)c2nc(-c3ccsc3)cnc2n1` [Example 110, 4-morpholino-6-(thiophen-3-yl)pteridin-2-ylamine], the CC50 at 3 days in series [1] was greater than 20 µM. Moreover, the EC50 in the series on HCV replicon (setting [2]) was 1 to 10 µM.

`Nc1nc(N2CCOCC2)c2nc(-c3ccoc3)cnc2n1` [Example 111, 6-(furan-3-yl)4-morpholinopteridin-2-ylamine] gave a CC50 at 3 days in series [1] greater than 20 µM. For the same compound, the EC50 in the series on HCV replicon (Hepatitis C virus, Huh-7, 72 h) lay within 1 to 10 µM.

`Nc1nc(N2CCOCC2)c2nc(-c3ccn[nH]3)cnc2n1` [Example 112, 4-morpholino-6-(1H-pyrazol-5-yl)pteridin-2-ylamine] came in with a CC50 at 3 days in series [1] greater than 20 µM. The EC50 in the series on HCV replicon (setting [2]) was in the range of 1 to 10 µM.

With `CNC(=O)c1ccc(-c2cnc3nc(N)nc(N4CCOCC4)c3n2)cc1` [Example 114, 4-(2-amino-4-morpholinopteridin-6-yl)-N-methylbenzamide], the half-maximal cytotoxic concentration (CC50) at 3 days in series [1] is greater than 20 µM. Besides, the EC50 with HCV replicon (setting [2]) fell in the range of 1 to 10 µM.

With `Cc1cc(F)ccc1-c1cnc2nc(N)nc(N3CCOCC3)c2n1` [Example 120, 6-(4-fluoro-2-methylphenyl)-4-morpholinopteridin-2-ylamine], the CC50 at 3 days in series [1] is 10 to 20 µM. The EC50 in the series with HCV replicon (setting [2]) lay within 1 to 10 µM.

For the compound `Nc1nc(N2CCOCC2)c2nc(-c3ccc(C(F)(F)F)cc3Cl)cnc2n1` [Example 121, 6-(2-chloro-4-(trifluoromethyl)phenyl)-4-morpholinopteridin-2-ylamine], in series [1], the CC50 at 3 days was in the range of 10 to 20 µM. Moreover, the EC50 in the series with HCV replicon (setting [2]) was 1 to 10 µM.

`Nc1nc(N2CCOCC2)c2nc(-c3cc4ccccc4s3)cnc2n1` [Example 123, 6-(benzo[b]thiophen-2-yl)-4-morpholinopteridin-2-ylamine]: the CC50 at 3 days in series [1] is less than 10 µM. In the series with HCV replicon (Hepatitis C virus, Huh-7, 72 h), the EC50 is 0.3 to 1 µM.

Take `CCOc1cccc(-c2cnc3nc(N)nc(N4CCOCC4)c3n2)c1` [Example 126, 6-(3-ethoxyphenyl)-4-morpholinopteridin-2-ylamine]: in series [1], the CC50 at 3 days was 10 to 20 µM. Also, in the series with HCV replicon (setting [2]), the EC50 fell in the range of 1 to 10 µM.

Compound `Nc1nc(N2CCOCC2)c2nc(-c3ccc(Cl)s3)cnc2n1` [Example 127] came in with a CC50 at 3 days in series [1] of less than 10 µM. In the series with HCV replicon (Hepatitis C virus, Huh-7, in Homo sapiens, 72 h), the EC50 was in the range of 0.3 to 1 µM.

Consider `COC(=O)Nc1ccc(-c2cnc3nc(N)nc(N4CCOCC4)c3n2)cc1` [Example 129, methyl 4-(2-amino-4-morpholinopteridin-6-yl)phenylcarbamate], for which the CC50 at 3 days in series [1] was less than 10 µM. Besides, in the series on HCV replicon (setting [2]), the EC50 was less than 0.3 µM.

As to `COc1ccc(-c2cnc3nc(N)nc(N4CCOCC4)c3n2)cn1` [Example 130, 6-(6-methoxypyridin-3-yl)-4-morpholinopteridin-2-ylamine], the CC50 at 3 days in series [1] is greater than 20 µM. For the same compound, the EC50 in the series on HCV replicon (setting [2]) was 1 to 10 µM.

Turning to `Nc1nc(N2CCOCC2)c2nc(-c3cc4ccccc4o3)cnc2n1` [Example 133, 6-(benzofuran-2-yl)-4-morpholinopteridin-2-ylamine], the CC50 at 3 days in series [1] was greater than 20 µM. The EC50 in the series with HCV replicon (setting [2]) is 0.3 to 1 µM.

Turning to `Nc1nc(N2CCOCC2)c2nc(-c3ccc4c(c3)CC(=O)N4)cnc2n1` [Example 136, 5-(2-amino-4-morpholinopteridin-6-yl)indolin-2-one], the CC50 at 3 days in series [1] was in the range of 10 to 20 µM. The EC50 with HCV replicon (setting [2]) was in the range of 1 to 10 µM.

`CC(C)C(=O)Nc1ccc(-c2cnc3nc(N)nc(N4CCOCC4)c3n2)cc1` [Example 137, N-(4-(2-amino-4-morpholinopteridin-6-yl)phenyl)isobutyramide]: in series [1], the CC50 at 3 days fell in the range of 10 to 20 µM. The EC50 in the series with HCV replicon (setting [2]) is less than 0.3 µM.

For the compound `CC(C)(C)C(=O)Nc1ccc(-c2cnc3nc(N)nc(N4CCOCC4)c3n2)cc1` [Example 138, N-(4-(2-amino-4-morpholinopteridin-6-yl)phenyl)pivalamide], the CC50 at 3 days in series [1] was 10 to 20 µM. In addition, the EC50 with HCV replicon (setting [2]) is 1 to 10 µM.

With `C[C@H](NC(=O)OC(C)(C)C)C(=O)Nc1ccc(-c2cnc3nc(N)nc(N4CCOCC4)c3n2)cc1` [Example 140, (S)-tert-butyl 1-(4-(2-amino-4-morpholinopteridin-6-yl)phenylamino)-1-oxopropan-2-ylcarbamate], in series [1], the CC50 at 3 days is less than 10 µM. In addition, the EC50 in the series with HCV replicon (setting [2]) lay within 1 to 10 µM.

For the compound `Nc1nc(N)c2nc(-c3cccc(F)c3F)cnc2n1` [Example 143, 6-(2,3-difluoro-phenyl)-pteridine-2,4-diamine], the CC50 at 3 days in series [1] lay in the range of 10 to 20 µM. Besides, in the series with HCV replicon (setting [2]), the EC50 fell in the range of 1 to 10 µM.

For `Nc1nc(N2CCOCC2)c2nc(-c3ccc(NC(=O)[C@@H](N)CO)cc3)cnc2n1` [Example 144, (S)-2-amino-N-(4-(2-amino-4-morpholinopteridin-6-yl)phenyl)-3-hydroxypropanamide], in series [1], the CC50 at 3 days was greater than 20 µM. Besides, the EC50 in the series with HCV replicon (setting [2]) was in the range of 1 to 10 µM.

`C[C@H](N)C(=O)Nc1ccc(-c2cnc3nc(N)nc(N4CCOCC4)c3n2)cc1` [Example 145, (S)-2-amino-N-(4-(2-amino-4-morpholinopteridin-6-yl)phenyl)-propanamide] yielded a CC50 at 3 days in series [1] greater than 20 µM. Also, the EC50 in the series with HCV replicon (setting [2]) lay within 0.3 to 1 µM.

In the case of `COc1nc(N)nc2ncc(-c3ccc(F)cc3)nc12` [Example 149, 6-(4-Fluorophenyl)-4-methoxy-pteridin-2-ylamine], the CC50 at 3 days in series [1] is greater than 20 µM. In the series on HCV replicon (setting [2]), the EC50 fell in the range of 0.3 to 1 µM.

As to `CC(C)Oc1nc(N)nc2ncc(-c3ccc(F)cc3)nc12` [Example 150, 6-(4-Fluorophenyl)-4-isopropoxy-pteridin-2-ylamine], the CC50 at 3 days in series [1] was greater than 20 µM. For the same compound, the EC50 in the series on HCV replicon (setting [2]) is less than 0.3 µM.

On to `CCCCOc1nc(N)nc2ncc(-c3ccc(F)cc3)nc12` [Example 152, 4-Butoxy-6-(4-fluorophenyl)-pteridin-2-ylamine], for which the CC50 at 3 days in series [1] is greater than 20 µM. Also, in the series with HCV replicon (setting [2]), the EC50 is 1 to 10 µM.

In the case of `CC(C)(O)CCOc1nc(N)nc2ncc(-c3ccc(F)cc3)nc12` [Example 154, 4-[2-Amino-6-(4-fluorophenyl)-pteridin-4-yloxy]-2-methyl-butan-2-ol], the CC50 at 3 days in series [1] was greater than 20 µM. In the series with HCV replicon (Hepatitis C virus, Huh-7, 72 h), this compound returned an EC50 of 1 to 10 µM.

Turning to `Nc1nc(OCC2CC2)c2nc(-c3ccc(F)cc3)cnc2n1` [Example 157, 4-Cyclopropylmethoxy-6-(4-fluorophenyl)-pteridin-2-ylamine], the CC50 at 3 days in series [1] was greater than 20 µM. For the same compound, the EC50 in the series on HCV replicon (setting [2]) was in the range of 1 to 10 µM.

In turn, `CCCOc1nc(N)nc2ncc(-c3ccc(F)cc3)nc12` [Example 159, 6-(4-Fluorophenyl)-4-propoxy-pteridin-2-ylamine] gave a CC50 at 3 days in series [1] greater than 20 µM. For the same compound, the EC50 in the series with HCV replicon (setting [2]) fell in the range of 1 to 10 µM.

For the compound `CCSc1nc(N)nc2ncc(-c3ccc(F)cc3)nc12` [Example 164, 4-ethylthio-6-(4-fluorophenyl)-pteridin-2-ylamine], the CC50 at 3 days in series [1] is greater than 20 µM. In addition, the EC50 in the series on HCV replicon (setting [2]) was 0.3 to 1 µM.

For orientation: CC50 means the concentration that lowers cell viability or growth by half. A high value points to lower toxicity to the cells. In general, EC50 refers to the concentration needed to bring the measured effect to its halfway point.
